Laboratory results from PubChem BioAssay AID1259407 (Chemical Carcinogenesis Research Information System (CCRIS), 2018).
Active and inactive are the calls of the source. The rule behind the calls is not given here.

Tested on: CCRIS mutagenicity, Ames/micronucleus/aberration tests
Assay: CCRIS mutagenicity studies
[1] = Test System: AMES SALMONELLA TYPHIMURIUM, Strain/Indicator: TA98, Metabolic Activation: NONE, Method: STANDARD PLATE
[2] = Test System: AMES SALMONELLA TYPHIMURIUM, Strain/Indicator: TA100, Metabolic Activation: NONE, Method: STANDARD PLATE

## C=CC(=O)OCCOC(=O)C=C
Test System: AMES SALMONELLA TYPHIMURIUM, Strain/Indicator: TA98, Metabolic Activation: HAMSTER, LIVER, S-9, AROCLOR 1254, Method: STANDARD PLATE
  mutagenic call: inactive; negative
[1]
  mutagenic call: inactive; negative
Test System: AMES SALMONELLA TYPHIMURIUM, Strain/Indicator: TA98, Metabolic Activation: RAT, LIVER, S-9, SODIUM PHENOBARBITAL, Method: STANDARD PLATE
  mutagenic call: inactive; negative
Test System: AMES SALMONELLA TYPHIMURIUM, Strain/Indicator: TA100, Metabolic Activation: HAMSTER, LIVER, S-9, AROCLOR 1254, Method: STANDARD PLATE
  mutagenic call: inactive; negative
[2]
  mutagenic call: inactive; negative
Test System: AMES SALMONELLA TYPHIMURIUM, Strain/Indicator: TA100, Metabolic Activation: RAT, LIVER, S-9, SODIUM PHENOBARBITAL, Method: STANDARD PLATE
  mutagenic call: inactive; negative
Test System: AMES SALMONELLA TYPHIMURIUM, Strain/Indicator: TA1535, Metabolic Activation: HAMSTER, LIVER, S-9, AROCLOR 1254, Method: STANDARD PLATE
  mutagenic call: inactive; negative
Test System: AMES SALMONELLA TYPHIMURIUM, Strain/Indicator: TA1535, Metabolic Activation: NONE, Method: STANDARD PLATE
  mutagenic call: inactive; negative
Test System: AMES SALMONELLA TYPHIMURIUM, Strain/Indicator: TA1535, Metabolic Activation: RAT, LIVER, S-9, SODIUM PHENOBARBITAL, Method: STANDARD PLATE
  mutagenic call: inactive; negative
Test System: AMES SALMONELLA TYPHIMURIUM, Strain/Indicator: TA1537, Metabolic Activation: HAMSTER, LIVER, S-9, AROCLOR 1254, Method: STANDARD PLATE
  mutagenic call: inactive; negative
Test System: AMES SALMONELLA TYPHIMURIUM, Strain/Indicator: TA1537, Metabolic Activation: NONE, Method: STANDARD PLATE
  mutagenic call: inactive; negative
Test System: AMES SALMONELLA TYPHIMURIUM, Strain/Indicator: TA1537, Metabolic Activation: RAT, LIVER, S-9, SODIUM PHENOBARBITAL, Method: STANDARD PLATE
  mutagenic call: inactive; negative
Test System: AMES SALMONELLA TYPHIMURIUM, Strain/Indicator: TA1538, Metabolic Activation: NONE, Method: STANDARD PLATE
  mutagenic call: inactive; negative
Test System: AMES SALMONELLA TYPHIMURIUM, Strain/Indicator: TA1538, Metabolic Activation: RAT, LIVER, S-9, AROCLOR 1254, Method: STANDARD PLATE
  mutagenic call: inactive; negative
Test System: AMES SALMONELLA TYPHIMURIUM, Strain/Indicator: TA1538, Metabolic Activation: RAT, LIVER, S-9, SODIUM PHENOBARBITAL, Method: STANDARD PLATE
  mutagenic call: inactive; negative

## S=[Se]
End Point: IN VITRO CHROMOSOMAL ABERRATIONS, Test System: CHO-LB CELLS, Metabolic Activation: NONE
  mutagenic call: active; positive
End Point: IN VITRO CHROMOSOMAL ABERRATIONS, Test System: CHO-LB CELLS, Metabolic Activation: RAT, LIVER, S-9, AROCLOR 1254
  mutagenic call: active; positive
Test System: AMES SALMONELLA TYPHIMURIUM, Strain/Indicator: TA97, Metabolic Activation: HAMSTER, LIVER, S-9, AROCLOR 1254 (5 OR 10%), Method: PREINCUBATION
  mutagenic call: active; positive
Test System: AMES SALMONELLA TYPHIMURIUM, Strain/Indicator: TA97, Metabolic Activation: HAMSTER, LIVER, S-9, AROCLOR 1254 (30%), Method: PREINCUBATION
  mutagenic call: inactive; negative
Test System: AMES SALMONELLA TYPHIMURIUM, Strain/Indicator: TA97, Metabolic Activation: NONE, Method: PREINCUBATION
  mutagenic call: active; positive
Test System: AMES SALMONELLA TYPHIMURIUM, Strain/Indicator: TA97, Metabolic Activation: RAT, LIVER, S-9, AROCLOR 1254 (5 OR 10%), Method: PREINCUBATION
  mutagenic call: active; positive
Test System: AMES SALMONELLA TYPHIMURIUM, Strain/Indicator: TA97, Metabolic Activation: RAT, LIVER, S-9, AROCLOR 1254 (30%), Method: PREINCUBATION
  mutagenic call: inactive; negative
Test System: AMES SALMONELLA TYPHIMURIUM, Strain/Indicator: TA98, Metabolic Activation: HAMSTER, LIVER, S-9, AROCLOR 1254 (10%), Method: PREINCUBATION
  mutagenic call: inactive; negative
Test System: AMES SALMONELLA TYPHIMURIUM, Strain/Indicator: TA98, Metabolic Activation: NONE, Method: PREINCUBATION
  mutagenic call: inactive; negative
Test System: AMES SALMONELLA TYPHIMURIUM, Strain/Indicator: TA98, Metabolic Activation: RAT, LIVER, S-9, AROCLOR 1254 (10%), Method: PREINCUBATION
  mutagenic call: inactive; negative
Test System: AMES SALMONELLA TYPHIMURIUM, Strain/Indicator: TA100, Metabolic Activation: HAMSTER, LIVER, S-9, AROCLOR 1254 (5%), Method: PREINCUBATION
  mutagenic call: inactive; negative
Test System: AMES SALMONELLA TYPHIMURIUM, Strain/Indicator: TA100, Metabolic Activation: HAMSTER, LIVER, S-9, AROCLOR 1254 (10%), Method: PREINCUBATION
  mutagenic call: active; positive
Test System: AMES SALMONELLA TYPHIMURIUM, Strain/Indicator: TA100, Metabolic Activation: NONE, Method: PREINCUBATION
  mutagenic call: inactive; negative
Test System: AMES SALMONELLA TYPHIMURIUM, Strain/Indicator: TA100, Metabolic Activation: RAT, LIVER, S-9, AROCLOR 1254 (5 OR 10%), Method: PREINCUBATION
  mutagenic call: inactive; negative
Test System: AMES SALMONELLA TYPHIMURIUM, Strain/Indicator: TA1535, Metabolic Activation: HAMSTER, LIVER, S-9, AROCLOR 1254 (10%), Method: PREINCUBATION
  mutagenic call: inactive; negative
Test System: AMES SALMONELLA TYPHIMURIUM, Strain/Indicator: TA1535, Metabolic Activation: NONE, Method: PREINCUBATION
  mutagenic call: inactive; negative
Test System: AMES SALMONELLA TYPHIMURIUM, Strain/Indicator: TA1535, Metabolic Activation: RAT, LIVER, S-9, AROCLOR 1254 (10%), Method: PREINCUBATION
  mutagenic call: inactive; negative

## ONc1ncnc2c1ncn2Cc1ccccc1
Test System: AMES SALMONELLA TYPHIMURIUM, Strain/Indicator: TA97, Metabolic Activation: NONE, Method: STANDARD PLATE
  mutagenic call: active; positive
Test System: AMES SALMONELLA TYPHIMURIUM, Strain/Indicator: TA97, Metabolic Activation: RAT, LIVER, S-9, AROCLOR 1254, Method: STANDARD PLATE
  mutagenic call: active; positive
[1]
  mutagenic call: inactive; negative
Test System: AMES SALMONELLA TYPHIMURIUM, Strain/Indicator: TA98, Metabolic Activation: RAT, LIVER, S-9, AROCLOR 1254, Method: STANDARD PLATE
  mutagenic call: active; positive
[2]
  mutagenic call: active; positive
Test System: AMES SALMONELLA TYPHIMURIUM, Strain/Indicator: TA100, Metabolic Activation: RAT, LIVER, S-9, AROCLOR 1254, Method: STANDARD PLATE
  mutagenic call: active; positive
